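Exposure lasted 48 hours, with cells grown in 96-well plates and compounds tested at five concentrations. The concentration for 50% growth inhibition is given as GI50.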 Active and inactive are the calls of the source. No stated cut-off is given here; in the data, active = GI50 up to about 1.1 µM and inactive = higher.
How the values were obtained:
Assay in all cases: growth of human tumour cells (NCI), 48 h
[1] = test system: UACC-257
[2] = test system: SK-OV-3
[3] = test system: EKVX
[4] = test system: UACC-62
[5] = test system: SK-MEL-5
[6] = test system: HCC 2998
[7] = test system: ACHN
[8] = test system: CCRF-CEM
[9] = test system: SR
[10] = test system: CAKI-1
[11] = test system: A498
[12] = test system: RXF 393
[13] = test system: HOP-92

Measured: GI50

COC(=O)[C@]1(C)CCC[C@]2(C)C3CC4OOC3(C=C4C(C)C)CCC21 (stereo not given in full)
inactive: [1] 17.3 µM | [2] 20.1 µM | [3] 16.7 µM | [4] 17.1 µM | [5] 16.1 µM | [6] 16.5 µM | [7] 17.4 µM | [8] 3.01 µM | [9] 9.66 µM | [10] 21.9 µM | [11] 11.4 µM

O=C1C2C3CCC(C2C(=O)N1CO)C1C2C(=O)N(CO)C(=O)C2C31 (stereo not given)
inactive: [1] > 100 µM | [2] > 100 µM | [3] > 100 µM | [4] 53.1 µM | [5] 43.4 µM | [7] > 44.1 µM | [12] > 46.9 µM | [8] 19.1 µM | [9] 13.4 µM | [13] > 63.1 µM | [10] > 96.6 µM | [11] > 100 µM

COc1ccc(N2C(=O)C3c4[nH]c5ccccc5c4C4CCCCCCC4C3C2=O)cc1 (stereo not given)
inactive: [1] 38.9 µM | [2] 14.4 µM | [3] 14 µM | [4] 15.9 µM | [5] 23.8 µM | [6] 11.2 µM | [7] 6.38 µM | [8] 4.12 µM | [9] 6.52 µM | [13] 13.8 µM | [10] 17 µM | [11] 25.5 µM

CCOC(=O)/C(=C/c1ccc(C(F)(F)F)cc1)N(CC)CC
inactive: [1] 66.8 µM | [2] 66.4 µM | [3] > 100 µM | [4] 35.4 µM | [5] 32.7 µM | [6] > 100 µM | [7] 42.1 µM | [8] > 100 µM | [9] > 100 µM | [13] 17.5 µM | [10] 58.6 µM | [11] > 100 µM

O=C(O)C1Cc2[nH]cnc2CN1 (stereo not given)
inactive: [1] > 100 µM | [2] > 100 µM | [3] > 100 µM | [4] > 100 µM | [5] > 100 µM | [6] > 100 µM | [7] > 100 µM | [8] > 100 µM | [9] > 100 µM | [13] > 100 µM | [10] > 100 µM | [11] > 100 µM

CCOC(=O)C(Cc1ccc([N+](=O)[O-])cc1)NC(=O)CC1c2ccccc2-c2ccccc21 (stereo not given)
inactive: [1] 24.5 µM | [2] 78.7 µM | [3] > 100 µM | [4] > 100 µM | [6] > 100 µM | [7] 20.7 µM | [12] 18 µM | [8] > 100 µM | [9] > 100 µM | [13] 23.7 µM | [11] > 100 µM

From ChEMBL document CHEMBL1201862, “PubChem BioAssay data set” (2004)
